Data on 6 molecules can be found in patent publication USRE43632E1, “1,3-propane diol esters and ethers and methods for their use in drug delivery” (Scarista, Ltd., priority 1995, dated 2012).

Structures are written as SMILES. Where two headings read alike, the source gives them in different places.

The conditions of data set [1]: in vivo, po.
Method: (§1) GLA was administered in the form of either GLA-GLA or GLA-EPA and EPA was administered in the form of GLA-EPA or EPA-EPA. The diesters were given either orally by gavage or intravenously in the form of a 20% emulsion made using 2% of oat galactolipid as an emulsifier in doses from about 0.1 to 2.0 g/kg. Animals were killed after 1, 2, 4, 8 and 24 hours and plasma, red cells and liver collected. The presence of the unmetabolised diesters was identified by high pressure liquid chromatography. The presence of fatty acids derived from the diesters and of metabolites of those fatty acids was checked by lipid extraction of the liver, plasma or red cells, by separation of that lipid fraction into triglycerides, phospholipids, cholesterol esters and free fatty acids by thin layer chromatography, by methylation of the fatty acids derived from those separated fractions and by analysis of those fatty acids using gas chromatography using methods well described in standard texts.
The subject of data set [2] is normal fibroblast line, a breast cancer line and a malignant melanoma line. Conditions: all cell lines: normal fibroblast, results set out in EPA-0 675 103; cited from earlier work.
The test system of data set [3] is fasted rats. Kind of data set: Gastrointestinal ulceration in fasted rats. Particulars: indomethacin 5-30 mg/kg or same amount as diester, sacrificed after 24 hours.
Method: Doses of indomethacin known to cause gastrointestinal ulceration (5-30 mg/kg) were given to fasted rats either in the form of free indomnethacin or the same amount of indomethacin in a 1,3-propane diol diester with GLA in the other position. The animals were sacrificed after 24 hours and the whole gastrointestinal tract examined for ulceration.
Data set [4] in a line: In vivo delivery, release and metabolism of diesters after oral or intravenous administration.
Method: as §1
Data set [5] relates to ASPC-1 human pancreatic cancer. The data set is described as follows: ASPC-1 human pancreatic cancer transplanted subcutaneously into nude mice. Type of data set: in vivo. As for the experimental part:
As a specific example of the therapeutic efficacy of the diesters, the 1,3 GLA-EPA propane diol diester was tested in the treatment of the ASPC-1 human pancreatic -cancer transplanted subcutaneously into nude mice which because they lack thymus function are able to accept foreign transplants without rejection. 15 mice were each injected subcutaneously with 5 million ASPC-1 cells suspended in Matrigel and DMEM buffer. In all animals a tumour developed whose size could be measured using callipers and whose volume could be estimated from the linear dimensions. Tumour size in each animal was measured twice weekly for five weeks. The animals were divided into three groups. 5 animals were used as controls and received 10 g/kg corn oil per day only. 5 animals received 10 g/kg corn oil per day but in addition received two injections per week of a dose of 1.5 g/kg of the GLA-EPA diester. […] The other 5 animals instead of the corn oil received 10 g/kg/day of the GLA-EPA diester. The treatments were continued for three weeks and then the tumours were allowed to grow for a further two weeks before the animals were sacrificed and the tumours excised and weighed. The mean tumour weights were: control group, 1240±290 mg; intravenous GLA-EPA group, 820±180 mg; oral GLA-EPA group, 490±160 mg. […] Thus the diesters are biologically active ways of administering the various fatty acids. The diesters can therefore be reasonably expected to exert the many desirable effects of the fatty acids which have been noted in many publications in the literature (e.g. Horrobin D F, ed., Omega-6 Essential Fatty Acids: Pathophysiology and Roles in Clinical Medicine: Wiley-Liss, New York, 1990.Simopoulos A P et al, eds, Health Effects of Omega-3 Polyunsaturated Fatty Acids in Seafoods, Karger, Basel, 1991. Fats and Oils in Human Nutrition, World Health Organization, Rome, 1994. Unsaturated Fatty Acids: Nutritional and Physiological Significance. British Nutrition Foundation, Chapman and Hall, London, 1992).

Take `CCCCC/C=C\C/C=C\C/C=C\CCCCC(=O)OCCCOC(=O)Cc1c(C)n(C(=O)c2ccc(Cl)cc2)c2ccc(OC)cc12` [GLA-indomethacin, 1-(z,z,z-Octadeca-6,9,12-trienoyloxy)-3-(I-(4-chlorobenzoyl)-5-methoxy-2-methyl-indole-3-acetyloxy)propane]: in data set [1], the “absorption and release of active moieties” value (shortened to “absorption and release”) is “absorbed following oral administration and to release their active moieties”.
Regarding `CCCCC/C=C\C/C=C\C/C=C\CCCCC(=O)OCCCOC(=O)CCCC/C=C\C/C=C\C/C=C\CCCCC` [GLA-GLA, 1,3-(di-z,z,z-Octadeca-6,9,12-trienoyloxy)propane], the “absorption and release” value in data set [1] was “absorbed following oral administration and to release their active moieties”.
With `COc1ccc2c(c1)c(CC(=O)O)c(C)n2C(=O)c1ccc(Cl)cc1` [indomethacin, reference compound], the “intracellular level after incubation (cell penetration)” value in data set [2] is listed as “very low”. The “ulceration of the whole gastrointestinal tract” value in data set [3] was “extensive ulceration”.
`CCCCC/C=C\C/C=C\C/C=C\CCCCC(=O)OCCCOC(=O)Cc1c(C)n(C(=O)c2ccc(Cl)cc2)c2ccc(OC)cc12` [indomethacin-GLA]: the “intracellular level after incubation (cell penetration)” value in data set [2] is “very substantial amounts of both indomethacin-GLA and free indomethacin”.
Turning to `CCCCCC=CCC=CCC=CCCCCC(=O)OCCCOC(=O)c1cccnc1` [niacin-GLA], the “absorption and release” value in data set [4] (oral administration) was “absorbed following oral administration and to release their active moieties”.
`CC/C=C\C/C=C\C/C=C\C/C=C\C/C=C\CCCC(=O)OCCCOC(=O)CCCC/C=C\C/C=C\C/C=C\CCCCC` [GLA-EPA, 1-(z,z,z-Octadeca-6,9,12-trienoyloxy)-3-(z,z,z,z,z-eicosa-5,8,11,14,17-pentaenoyloxy)propane]: in data set [4] (intravenous infusion and oral administration of the diester emulsion), the “in vivo release of free GLA and EPA” value is “rapid in vivo release of free GLA and EPA”. Further, the tumour growth entry in data set [5] (both oral and intravenous administration) was “substantially inhibited”. For the same molecule, the mean tumour weight in data set [5] (intravenous, 1.5 g/kg two injections per week for three weeks, 20% emulsion, tumours weighed at five weeks) was 820 ± 180 mg. Moreover, the “side effects or distress in the animals” value in data set [5] (mouse, in vivo) was “without causing any side effects or distress”. Moreover, the “tolerability of the intravenous emulsion” value in data set [5] (nude mice, 20% emulsion with 2% oat galactolipid, 1.5 g/kg twice weekly) was “very well tolerated and caused no haemolysis or thrombophlebitis”.
